Assay results: patent US20230320995A1, “IONIZABLE CATIONIC LIPIDS AND LIPID NANOPARTICLES” (CAPSTAN THERAPEUTICS, INC., priority 2022, published 2023)

Key:
[1] = ex vivo stability in mouse plasma; assay type: in vitro ADME; conditions: 37° C.; for ex vivo Mouse Plasm Stability % Remaining at 2 Hours: CD-1 mouse plasma, 1 μM lipid
Experimental: To determine the stability of the disclosed lipids in mouse plasma lipid stock solution was prepared by dissolution of the lipid in isopropanol at the concentration of 5 mg/mL. A requisite volume of the lipid-isopropanol solution was then diluted to 100 μM concentration at a total volume of 10.0 mL with 50:50 (v/v) ethanol/water. Ten microliters of this 100 μM solution was spiked into 10.0 mL of mouse plasma (BioIVT, Lot MSE394920, CD-1 mouse, anticoagulant: sodium heparin, not filtered) that was prewarmed to 37° C. and stirred at 50 rpm with a magnetic stir bar. The starting concentration of lipids in plasma was thus 1 μM. Aliquots (50 μL) were taken after 0, 15, 30, 45, 60, and 120 minutes, transferred to microcentrifuge tubes and quenched with three volumes (150 μL) of ice cold acetonitrile/methanol (4:1). Positive control incubations utilized the same plasma, with Benfluorex (1 μM) as the substrate with Labetalol (1.0 μgl) as the in situ disappearance. The quenched solutions were vortexed, centrifuged for 5 minutes at 13,000 rpm, and supernatant (100 μL) transferred to a 96-well plate and diluted with water (200 μL, 0.1% FA). After filtration through a 0.45 μm 96-well filtering plate, the filtrates were analyzed by LC-MS (Waters AQUITY I-class UPLC system, ThermoScientific Vanquish UPLC system consisting of a binary pump, autosampler, and column compartment, Waters Xevo G2-XS QT of mass spectrometer; Phenomenex F5, 1.7 μm, 2.1×50 mm column). Mobile phase A was 0.1% formic acid in water, and mobile phase B was 0.1% formic acid in acetonitrile. The flow rate was 0.6 mL/min. Elution gradient was as follows: time, 0.5 min: 20% B; 0.5-2 min: 20-100% B; 2-4.8 min: 100% B; 4.8-5.45 min: 100-20% B. Mass spectrometry was in positive scanning mode from 600-1100 m/z. The peak of the molecular ion of the lipids was integrated in extracted ion chromatography (XIC) using Xcalibur software (Thermo Fisher). The relative peak area compared to T=0, after normalization by the peak area of the internal standard, was used as the percentage of the lipid remaining at each time point. T1/2 values were calculated using the first-order decay model.

mouse splenic T cells = test: targeted transfection of T cells in vivo with CD5-targeted tLNP; conditions: C57Bl/6 mice, 10 μg via tail vein, spleen at 24 hours
Experimental: To assess the performance of tLNP described in Example 35 they were used to transfect mouse T cells by injecting the tLNP into live mice and evaluated for their ability to generate murine T cells that express the mCherry reporter gene in vivo. All tLNP test articles were thawed at room temperature for 30 minutes and then diluted 1:2 with sterile water for injection to achieve a final dose concentration of 100 μg/mL. 100 μL (10 μg) of each test article was then injected via the tail vein into 8-week-old female C57Bl/6 mice. All treated mice were then sacrificed at 24 hours post-treatment and their spleens collected. Each spleen was then dissociated to single cell suspension and stained with antibodies to identify T cells, B cells, monocytes and non-hematopoietic cells. Stained samples were then analyzed by flow cytometry for expression of mCherry in immune cell subsets, and non-hematopoietic cells. Data analysis was performed using FlowJo (Version 10.8.1) and GraphPad Prism (9.4.1.).

[2] = physical-chemical properties of LNP encapsulating mCherry mRNA; assay type: physicochemical; conditions: for Hydrodynamic diameter: LNP: ionizable lipid/DSPC/cholesterol/DMG-PEG2000 50:10:38.5:1.5, mCherry mRNA, pH 7.4 Tris, 25° C.
Source text: The mRNA was encapsulated in LNP using a self-assembly process in which an aqueous solution of mRNA at pH=3.5 is rapidly mixed with a solution of lipids dissolved in ethanol, then followed by stepwise phosphate and Tris buffer dilution and tangential flow filtration (TFF) purification. LNP composition in this study was: ionizable cationic lipid/distearoylphosphatidylcholine/cholesterol/DMG-PEG2000 (50:10:38.5:1.5 mol/mol) and were encapsulated at an N/P ratio (the ratio of positively-chargeable lipid amine (N=nitrogen) groups to negatively-charged nucleic acid phosphate (P) groups) at 6. LNPs were frozen at −80° C. […] The diameter of the nanoparticles was measured by dynamic light scattering using a Zetasizer Nano ZS (Malvern Instruments Ltd., Malvern, UK) instrument. Size measurement was carried out in pH 7.4 Tris buffer at 25° C. in relevant disposable capillary cells. A non-invasive back scatter system (NIBS) with a scattering angle of 173° was used for size measurements.

HEK293F cells = test: transfection of HEK293F cells with mCherry mRNA LNP; assay type: cell-based; conditions: highest dose tested (2 μg RNA per well), 24 hours
Experimental: The ability of the LNP formed in the preceding Example to transfect HEK293F cells, a human embryonic kidney cell-derived cell line, with the mCherry mRNA was assessed. Viral Production Cells (Gibco Catalog number: A35347), a derivative of the HEK 293F cell line adapted to a chemically-defined, serum-free and protein-free medium (LV-MAX™ Production Medium; Gibco Catalog number: A3583401) were grown in suspension, sedimented, resuspended at about 1×10^6 cells/mL, and 200 μL distributed to the wells of a 96-well U-bottom plate. Frozen LNP were thawed and diluted to 100 μg mRNA/mL with sterile water for injection. An appropriate volume of LNP was added to provide 0, 0.3, 0.6, or 2 μg RNA per well in duplicate and mixed by re-pipetting. The cells were then incubated for 1 hour at 37° C. in a CO2 incubator, washed three times with phosphate buffered saline, resuspended in 400 μL of medium in a deep-well 96-well plate, and incubated at 37° C. in a CO2 incubator on an orbital shaker at 900 RPM.
Twenty-four hours after addition of the LNP to the cells they were stained with Aqua Live/Dead (Thermo: catalog L34965) to assess cell viability. Transfection rate and expression level in the transfected cells was assessed by flow cytometry based on mCherry fluorescence.

With `CCCCCCCCC(=O)OCC(COC(=O)CCCCCCCC)CC(=O)OCCN(CCOC(=O)CC(COC(=O)CCCCCCCC)COC(=O)CCCCCCCC)C(=O)OCCN(C)C` [Compound A-11] the half-life at 1 μM ([1]; CD-1, mouse plasma) was less than 600 min, the “ex vivo Mouse Plasm Stability % Remaining at 2 Hours” value [1] was 86% and the “level of mCherry expression (MFI) in vivo” value (mouse splenic T cells) was “distinctly greater than that achieved with the other tLNP”. The “transfection rate of splenic T cells in vivo” value (mouse splenic T cells) was “around 7%”, the Hydrodynamic diameter ([2]; N/P 6, DLS) was 82 nm and the transfection rate (HEK293F cells) was roughly 50%.
In the case of `CCCCCCCCCC(=O)OCC(COC(=O)CCCCCCCCC)CC(=O)OCCN(CCOC(=O)CC(COC(=O)CCCCCCCCC)COC(=O)CCCCCCCCC)C(=O)NCCCN(C)C` [Compound A-2], the “ex vivo Mouse Plasm Stability % Remaining at 2 Hours” value [1] is reported as 72%, the “Encapapsulation Efficiency” value ([2]; LNP 50:10:38.5:1.5, mCherry mRNA, N/P 6) is reported as 99% and the “PDI (polydispersity index)” value ([2]; LNP 50:10:38.5:1.5, mCherry mRNA, DLS) is reported as 0.13. The Hydrodynamic diameter ([2]; N/P 6, DLS) was 73 nm.
